Measured values: publication PMC7407491, “The Addition of a Synthetic LPS-Targeting Domain Improves Serum Stability While Maintaining Antimicrobial, Antibiofilm, and Cell Stimulating Properties of an Antimicrobial Peptide” (Biomolecules, 2020)
In brackets after ≈: the same amount, converted by molar mass. Bridge positions count the residues as written; N and C are the ends. Peptide text beside a SMILES is read from it.

What was measured:
[1] = test system: IPEC-J2 cells; assay: In vitro cell migration, transwell assay; type: cell-based, porcine; details: transwell 8-micron, serum-free DMEM F-12, 5 to 20 µg/mL, 16 h, Hoechst 33342 count; SynPG-1 not significant at higher concentrations
Protocol: A cell line, established from intestinal porcine enterocytes, isolated from the jejunum of a neonatal unsuckled piglet (IPEC-J2 cells, DSMZ), was grown in monolayer culture in Dulbecco’s modified Eagle’s medium (high glucose), supplemented with 10% fetal bovine serum (FBS) from Invitrogen, 100 IU/mL penicillin, and 100 µg/mL streptomycin. Cultures were maintained in a 5% CO2 humidified atmosphere at 37 °C and passaged every 2–3 days, with detachment via the Trypsin-EDTA solution (Sigma).
To evaluate migration of IPEC-J2 cells, 8-micron pore-sized cell culture transwell inserts were used (Millipore Inc, Temecula, CA, USA). A total of 1 × 10^5 cells were plated in the upper inserts of the transwell and placed within 24-well plates, containing serum-free DMEM F-12 in the absence and presence of SynPG-1 or PG-1, at concentrations ranging from 5 µg/mL to 20 µg/mL. After incubation for 16 h, the cells were fixed with 4% (w/v) paraformaldehyde. […] Migration was quantified by cell enumeration through Hoechst 33342 staining of cell nuclei (Thermo Fisher Scientific, Mississauga, ON, Canada). The results are represented as the relative fold increase in migrated cells when compared to the baseline migration of IPEC-J2 cells in serum-free media after 16 h.

[2] = test system: pre-formed S. typhimurium biofilm; assay: Pre-formed biofilm destruction assay, crystal violet; type: cell-based, Salmonella typhimurium; details: 48 h pre-formed biofilm, 3 h peptide treatment 37 °C, crystal violet OD 590 nm; p < 0.05 vs control; three independent experiments, n = 6
Protocol: To test the destruction of preformed biofilms, in a 96-well plate, 15 µL of overnight culture, of either E. coli, S. typhimurium, or MRSA, was added to 150 µL of minimal salt media (40 mM […]; 22 mM KH2PO4; […] NH4CL; 740 mM NaCl; 2 mM MgSO4; 0.1 mM CaCl2; 22 mM supplemented with D-Glucose) in each well. Plates were placed in a static incubator at 37 °C for 48 h; the time required for untreated wells to form biofilm. After formation, minimal salt media was removed and wells were treated with 155 µL of minimal salt media containing PG-1 or SynPG-1. […] Plates were placed in a static incubator at 37 °C for 3 h. After 3 h, treated media was removed and wells were rinsed with 155 µL of PBS to remove planktonic cells. After sufficient drying of wells, 150 µL of 0.1% crystal violet stain was added to each well and incubated at room temperature for 30 min, after which dye was removed and wells were rinsed again with 155 µL of PBS. After sufficient drying of wells, 150 µL of 70% ethanol solution was added to each well and incubated at room temperature for 30 min. After 30 min, 100 µL of each well was added to a new 96-well plate and absorbance was measured at an OD of 590 nm.

[3] = test system: Escherichia coli; type: cell-based; details: 2 h, pH 7
Protocol: Veterinary clinical isolates, including Salmonella typhimurium, multi-drug resistant Escherichia coli, methicillin-resistant Staphylococcus aureus (MRSA), and methicillin-resistant Staphylococcus pseudointermedius (MRSP), were kindly provided by Dr. H. Cai (Department of Pathobiology, University of Guelph, ON, Canada). An antibiogram for these strains is available in the supplementary text (Table S1). Gram-negative strains were cultured in Luria−Bertani (LB) broth. Gram-positive strains were cultured in Tryptic soy broth (TSB). Both cultures were grown under aerobic conditions at 37 °C.
The minimum bactericidal concentration (MBC) of SynPG-1 against the tested pathogens was identified through a broth macrodilution antimicrobial assay as previously described, with some modification. […] The buffer volume was adjusted to accommodate the addition of SynPG-1 and PG-1 so that the final solution volume was 0.5 mL for each tested concentration. Final peptide concentrations ranged from 0.1 µg/mL to 8 µg/mL. PG-1 at the known MBC (2 µg/mL E. coli; 4 µg/mL S. typhimurium; 0.5 µg/mL MRSP; 0.5 µg/mL MRSA) was considered the in-house positive control, while the suspension containing no peptide was considered the negative control. Experimental and control tubes were incubated for 2 h at 37 °C without shaking to allow for bactericidal action to occur. […] Colony numbers from each plate were recorded. […]

SMILES: CC[C@H](C)[C@H](NC(=O)[C@H](CCCCN)NC(=O)[C@H](CCCNC(=N)N)NC(=O)[C@H](CC(C)C)NC(=O)[C@H](CC(C)C)NC(=O)[C@H](CCCNC(=N)N)NC(=O)[C@H](CCCNC(=N)N)NC(=O)[C@H](CC(C)C)NC(=O)CN)C(=O)N[C@@H](CCCNC(=N)N)C(=O)NCC(=O)N[C@@H](CCCNC(=N)N)C(=O)N[C@@H](Cc1c[nH]c2ccccc12)C(=O)N[C@@H](CCCCN)C(=O)NCC(=O)NCC(=O)NCC(=O)N[C@@H](CCCNC(=N)N)C(=O)NCC(=O)NCC(=O)N[C@@H](CCCNC(=N)N)C(=O)N[C@@H](CC(C)C)C(=O)N[C@H]1CSSC[C@@H](C(=O)N[C@H](C(=O)NCC(=O)N[C@@H](CCCNC(=N)N)C(=O)O)C(C)C)NC(=O)[C@H](C(C)C)NC(=O)[C@@H]2CSSC[C@H](NC(=O)[C@H](Cc3ccc(O)cc3)NC1=O)C(=O)N[C@@H](CCCNC(=N)N)C(=O)N[C@@H](CCCNC(=N)N)C(=O)N[C@@H](CCCNC(=N)N)C(=O)N[C@@H](Cc1ccccc1)C(=O)N2 [SynPG-1, Syn-Protegrin-1] (H-GLRRLLRKIRGRWKGGGRGGRLCYCRRRFCVCVGR-OH; disulfide 23-32, 25-30; N-terminus and C-terminus assumed)
- Concentration at which cell migration increased significantly [1]: 5 µg/mL
- Concentration with significant disruption of pre-formed biofilm [2]: 8 µg/mL
- MBC [3]: 2 µg/mL (≈ 0.486 µM)
